From patent US4567175A, “8-Chloro-1,5-benzothiazepine derivatives” (Tanabe Seiyaku Co., Ltd., priority 1983, dated 1986)

Tests used:
[1] = system: spontaneously hypertensive rats (SHR); assay: Hypotensive activity, oral administration to SHR, systolic blood pressure by tail plethysmography (Experiment 1); assay type: in vivo; settings: 30 mg/kg oral
Procedure: A test compound (dose: 30 mg/kg) dissolved or suspended in water was administered orally to spontaneously hypertensive rats (SHR) (one group: 3 rats) fasted overnight. The systolic blood pressure of the rats was measured by the tail plethysmographic technique (The Journal of Laboratory and Clinical Medicine 78(1971), page 957). The hypotensive activity of the test compound was estimated at one or 4 hours after dosing and expressed as "-" if the decrease in blood pressure is less than 10 mm Hg; "+" if the decrease is not less than 10 mm Hg but less than 20 mm Hg; "++" if the decrease is not less than 20 mm Hg but less than 40 mm Hg; "+++" if the decrease is not less than 40 mm Hg but less than 60 mm Hg; or "++++" if the decrease is not less than 60 mm Hg.

[2] = system: isolated heart of guinea pig; assay: Coronary vasodilating activity: Langendorff's method, coronary blood flow of isolated guinea pig heart (Experiment 4); settings: for Coronary vasodilating activity (increase in coronary blood flow): isolated guinea pig heart, Langendorff, 30° C.
Procedure: Langendorff's method was used for testing the effect on the coronary blood flow of the isolated heart of guinea pig (about 280 g). The isolated heart was perfused with Locke-Ringer solution containing 2% of defibrinated rabbit blood, which had been saturated with a mixed gas of 95% O2 and 5% CO2 (30° C.). Perfusion pressure was kept at 40 cm H2 O. A solution of a test compound in an aqueous 5% glucose solution was injected into the perfusing solution at a volume of 0.1 ml per heart. The overflow of the perfusate was measured by means of a drop counter.
The coronary vasodilating activity of the test compound was expressed as "±" if the increase in coronary blood flow is less than 0.5 ml/minute at a dose of 100 μg/heart; "+" if the increase is not less than 0.5 ml/minute at a dose of 100 μg/heart; "++" if the increase is not less than 0.5 ml/minute at a dose of 30 μg/heart; and "+++" if the increase is not less than 0.5 ml/minute at a dose of not more than 10 μg/heart.

platelet aggregation = assay: Platelet aggregation-inhibiting activity, collagen-induced aggregation in rat platelet-rich plasma, Born's method (Experiment 5); assay type: cell-based, male Sprague-Dawley rats; set-up: key: -: less than 10% inhibition of platelet aggregation; +: not less than 10% inhibition of platelet aggregation but said percentage inhibition was lower than that of acetylsalicylic acid (100 μg/ml); ++: platelet aggregation-inhibiting activity at least as strong as that of acetylsalicylic acid (100 μg/ml); settings: final concentration 100 μg/ml, rat PRP, 37° C.
Excerpt: Blood was collected from the abdominal aorta of male Sprague-Dawley rats which were anesthetized with ether. Nine volumes of rat blood were mixed with one volume of an aqueous trisodium citrate solution, and the mixture was centrifuged to give platelet-rich plasma ("PRP") as the supernatant solution. The bottom layer was further centrifuged to give platelet-poor plasma ("PPP") as the supernatant solution. Platelet counts were adjusted to 0.8-1×10^6 /mm^3 for PRP by dilution with PPP. After a mixture of 200 μl of the diluted PRP and 25 μl of a test compound solution (final concentration: 100 μg/ml) was stirred for 2 minutes at 37° C., 25 μl of a collagen solution [Biochim. Biophys. Acta, 186, page 254(1969)] were added thereto. The degree of platelet aggregation was estimated by Born's method [Nature, 194, page 927(1962)] and the percentage inhibition of platelet aggregation was calculated therefrom.

vertebral artery [3] = assay: Cerebral vasodilating activity: vertebral artery blood flow in anesthetized dogs, intraarterial injection, potency ratio to papaverine (Experiment 2); assay type: in vivo; settings: for Cerebral vasodilating activity (potency ratio): injected into vertebral artery, potency ratio to papaverine from dose-response curves; for increase in vertebral artery blood flow (in words) / cerebral vasodilating activity, times stronger than the 7-chloro derivative: intraarterial; for cerebral vasodilating activity, times stronger than the 7-chloro derivative: versus (+)-cis-...-7-chloro-... hydrochloride (so in the source)
Procedure: On the other hand, when the coronary vasodilating activity is estimated by the Langendorff method using isolated hearts of guinea pigs, said activity of (+)-cis-2-(4-methoxyphenyl)-3-acetoxy-5-[2-(dimethylamino)ethyl]-8-chloro- 2,3-dihydro-1,5-benzothiazepin-4(5H)-one hydrochloride is about 10 times stronger than that of papaverine.
Male dogs weighing 10 to 20 kg were anesthetized with sodium pentobarbital (30 mg/kg, intravenous injection). The blood flow in vertebral artery was measured continuously by means of an electromagnetic flowmeter under artificial respiration. A test compound dissolved in an aqueous 5% glucose solution was injected into vertebral artery. The cerebral vasodilating activity of the test compound was estimated in terms of the potency ratio of said compound to papaverine, which was calculated from the dose-response curves thereof.

vertebral artery [4] = assay: Cerebral vasodilating activity: increase in vertebral artery blood flow in anesthetized dogs after femoral vein injection (Experiment 3); assay type: in vivo; settings: 200 μg/kg into femoral vein
Procedure: Male dogs weighing about 20-24 kg (one group: 2 dogs) were anesthetized with sodium pentobarbital (35 mg/kg, intravenous injection). The blood flow in vertebral artery was measured by means of an electromagnetic flowmeter under artificial respiration. A test compound (i.e., (+)-cis-2-(4-methoxyphenyl)-3-acetoxy-5-[2-(dimethylamino)ethyl]-8-chloro- 2,3-dihydro-1,5-benzothiazepin-4(5H)-one hydrochloride) in a physiological saline solution was injected into the femoral vein at a dose of 200 μg/kg. The cerebral vasodilating activity of the test compound was estimated in terms of "increase (Δml/minute) in vertebral artery blood flow" which was calculated by subtracting "the blood flow measured immediately before injection of test compound" from "the blood flow measured at a period of time after injection of test compound".

[5] = Acute toxicity (LD50), oral administration to mice; settings: mouse, in vivo
Procedure: For example, the acute toxicity (LD50) of (+)-cis-2-(4-methoxyphenyl)-3-acetoxy-5-[2-(dimethylamino)ethyl]-8-chloro- 2,3-dihydro-1,5-benzothiazepin-4(5H)-one hydrochloride when orally administered to mice is more than 1000 mg/kg.

## CCN(C)CCN1C(=O)[C@H](OC(C)=O)[C@H](c2ccc(OC)cc2)Sc2cc(Cl)ccc21.Cl (racemic) [(±)-cis-2-(4-methoxyphenyl)-3-acetoxy-5-[2-(N-methyl-N-ethylamino)ethyl]-8-chloro-2,3-dihydro-1,5-benzothiazepin-4(5H)-one hydrochloride]
[1]
  Hypotensive activity (decrease in blood pressure), 1 hr after dosing: +++ (decrease is not less than 40 mm Hg but less than 60 mm Hg)
  Hypotensive activity (decrease in blood pressure), 4 hrs after dosing: +++ (decrease is not less than 40 mm Hg but less than 60 mm Hg)

## CCCN(C)CCN1C(=O)[C@H](OC(C)=O)[C@H](c2ccc(OC)cc2)Sc2cc(Cl)ccc21.O=C(O)C(=O)O (racemic) [(±)-cis-2-(4-methoxyphenyl)-3-acetoxy-5-[2-(N-methyl-N-n-propylamino)ethyl]-8-chloro-2,3-dihydro-1,5-benzothiazepin-4(5H)-one oxalate]
[2]
  Coronary vasodilating activity (increase in coronary blood flow): +++ (increase is not less than 0.5 ml/minute at a dose of not more than 10 μg/heart)
Platelet aggregation
  Platelet aggregation-inhibiting activity: ++

## COc1ccc([C@@H]2Sc3ccc(Cl)cc3N(CCN(C)C)C(=O)[C@@H]2OC(C)=O)cc1.Cl (racemic) [(±)-cis-2-(4-methoxyphenyl)-3-acetoxy-5-[2-(dimethylamino)ethyl]-7-chloro-2,3-dihydro-1,5-benzothiazepin-4(5H)-one hydrochloride, reference compound]
[1]
  Hypotensive activity (decrease in blood pressure), 1 hr after dosing: - (decrease in blood pressure is less than 10 mm Hg)
  Hypotensive activity (decrease in blood pressure), 4 hrs after dosing: ++ (decrease is not less than 20 mm Hg but less than 40 mm Hg)
Vertebral artery [3]
  Cerebral vasodilating activity (potency ratio): 5

## COc1ccc([C@@H]2Sc3cc(Cl)ccc3N(CCN(C)C)C(=O)[C@@H]2OC(C)=O)cc1.Cl (racemic) [(±)-cis-2-(4-methoxyphenyl)-3-acetoxy-5-[2-(dimethylamino)ethyl]-8-chloro-2,3-dihydro-1,5-benzothiazepin-4(5H)-one hydrochloride]
[1]
  Hypotensive activity (decrease in blood pressure), 1 hr after dosing: ++ (decrease is not less than 20 mm Hg but less than 40 mm Hg)
  Hypotensive activity (decrease in blood pressure), 4 hrs after dosing: ++++ (decrease is not less than 60 mm Hg)
[2]
  Coronary vasodilating activity (increase in coronary blood flow): +++ (increase is not less than 0.5 ml/minute at a dose of not more than 10 μg/heart)
Platelet aggregation
  Platelet aggregation-inhibiting activity: ++

## CCN(CC)CCN1C(=O)[C@H](OC(C)=O)[C@H](c2ccc(OC)cc2)Sc2cc(Cl)ccc21.O=C(O)C(=O)O (single isomer, unassigned) [(+)-cis-2-(4-methoxyphenyl)-3-acetoxy-5-[2-(diethylamino)ethyl]-8-chloro-2,3-dihydro-1,5-benzothiazepin-4(5H)-one oxalate]
Platelet aggregation
  Platelet aggregation-inhibiting activity: ++

## COc1ccc([C@@H]2Sc3cc(Cl)ccc3N(CCN(C)C)C(=O)[C@@H]2OC(C)=O)cc1.Cl (single isomer, unassigned) [(+)-cis-2-(4-methoxyphenyl)-3-acetoxy-5-[2-(dimethylamino)ethyl]-8-chloro-2,3-dihydro-1,5-benzothiazepin-4(5H)-one hydrochloride]
Vertebral artery [3]
  Cerebral vasodilating activity (potency ratio): 25
  increase in vertebral artery blood flow (in words): remarkable increase
  cerebral vasodilating activity, times stronger than the 7-chloro derivative: about 5 times
Vertebral artery [4]; 1 minute after injection
  Increase in vertebral artery blood flow, 1 minute: 58 Δml/minute
Vertebral artery [4]; 3 minutes after injection
  Increase in vertebral artery blood flow, 3 minutes: 53 Δml/minute
Vertebral artery [4]; 5 minutes after injection
  Increase in vertebral artery blood flow, 5 minutes: 52 Δml/minute
Vertebral artery [4]; 10 minutes after injection
  Increase in vertebral artery blood flow, 10 minutes: 38 Δml/minute
Vertebral artery [4]; 20 minutes after injection
  Increase in vertebral artery blood flow, 20 minutes: 21 Δml/minute
Vertebral artery [4]; 30 minutes after injection
  Increase in vertebral artery blood flow, 30 minutes: 14 Δml/minute
[2]; Langendorff method, isolated hearts of guinea pigs, versus papaverine
  coronary vasodilating activity, times stronger than papaverine: about 10 times
[2]
  Coronary vasodilating activity (increase in coronary blood flow): +++ (increase is not less than 0.5 ml/minute at a dose of not more than 10 μg/heart)
[5]
  LD50: > 1000 mg/kg

## COc1ccc([C@@H]2Sc3cc(Cl)ccc3N(CCN(C)C)C(=O)[C@@H]2OC(C)=O)cc1.O=C(O)/C=C\C(=O)O (single isomer, unassigned) [(+)-cis-2-(4-methoxyphenyl)-3-acetoxy-5-[2-(dimethylamino)ethyl]-8-chloro-2,3-dihydro-1,5-benzothiazepin-4(5H)-one maleate]
[1]
  Hypotensive activity (decrease in blood pressure), 1 hr after dosing: ++++ (decrease is not less than 60 mm Hg)
  Hypotensive activity (decrease in blood pressure), 4 hrs after dosing: ++++ (decrease is not less than 60 mm Hg)
[1]; 4 hours
  decrease in blood pressure, 4 hours after administration: ~68 mm Hg
[1]; one hour
  decrease in blood pressure, one hour after administration: about 86 mm Hg

## COc1ccc([C@@H]2Sc3cc(Cl)ccc3N(CCN(C)C)C(=O)[C@@H]2O)cc1.O=C(O)C(=O)O (single isomer, unassigned) [(+)-cis-2-(4-methoxyphenyl)-3-hydroxy-5-[2-(dimethylamino)ethyl]-8-chloro-2,3-dihydro-1,5-benzothiazepin-4(5H)-one oxalate]
Platelet aggregation
  Platelet aggregation-inhibiting activity: ++

## CCC(=O)O[C@H]1C(=O)N(CCN(C)C)c2ccc(Cl)cc2S[C@H]1c1ccc(OC)cc1.O=C(O)C(=O)O (single isomer, unassigned) [(+)-cis-2-(4-methoxyphenyl)-3-propionyloxy-5-[2-(dimethylamino)ethyl]-8-chloro-2,3-dihydro-1,5-benzothiazepin-4(5H)-one oxalate]
Vertebral artery [3]
  Cerebral vasodilating activity (potency ratio): 23.7
  increase in vertebral artery blood flow (in words): remarkable increase
  cerebral vasodilating activity, times stronger than the 7-chloro derivative: about 5 times
Platelet aggregation
  Platelet aggregation-inhibiting activity: ++

## COc1ccc(Cc2nccc3cc(OC)c(OC)cc23)cc1OC [Papaverine, reference compound]
[2]
  Coronary vasodilating activity (increase in coronary blood flow): + (increase is not less than 0.5 ml/minute at a dose of 100 μg/heart)
